Where “and” joins values, the source holds several entries; their conditions need not be identical. Identical values can stand only once.
Molecular target: T1, cardiac RyR2 (Sus scrofa, UniProt A0A5G2R1W3)
T1 construct: from tissue; host or cells: pig heart ventricle (sarcoplasmic reticulum microsomes)
Test: Single-channel recordings of RyR2 reconstituted into planar lipid bilayers
Format: biochemical, pig
Conditions: for substate current level as % of the current through the full open channel / substate current level as % of the full open current: 1 µg/ml protamine, 10 µM ryanodol or 50 nM IpTxA, 10 µM cytosolic Ca2+/5 mM caffeine; for substate current level as % of the full open current: Vm = +40 mV; for slope conductance of the induced substate (I-V curve): fully active RyR2 (10 µM Ca2+/5 mM caffeine), full open state 129±1 pS, n = 10 protamine, 13 ryanodol, 5 IpTxA, mean±SEM; for slope conductance of the induced substate (I-V curve) / dwell time of ryanodol-induced events: SEM; for dwell time of ryanodol-induced events: Vm = +20 mV, n = 7, mean±SEM
Description: All procedures with animals were designed to minimize pain and suffering and conformed to the guidelines of the National Institutes of Health. The committee on the Use and Care of Laboratory Animals of Southern Illinois University School of Medicine reviewed and approved the protocols for animal use. Sarcoplasmic reticulum (SR) microsomes were obtained from pig heart ventricle using heart homogenization and ultracentrifugation steps that follow the procedures published by Chamberlain et al.. SR pellets obtained after high speed centrifugation were resuspended in 290 mM sucrose - 5 mM Imidazole buffer (pH = 7) and were aliquoted in cryovials (300 µl each) and kept in liquid nitrogen (better and safer long-term storage). Every month, a few cryovials are used to generate smaller aliquots of membranes (15 µl each) which were stored at –80°C for easy access. For experiments, aliquots were quickly thawed in water, kept on ice and used within 3–5 hours.
Reconstitution of RyR2 in planar lipid bilayers, was performed as previously described. Briefly, planar lipid bilayers were formed on 80 to 100 µm-diameter circular holes in teflon septa, separating two 1.3 ml compartments. The trans compartment was filled with HEPES-Ca^2+ solution containing HEPES 250 mM and Ca(OH)2 53 mM, pH 7.4. The trans compartment was clamped at 0 mV using an Axopatch 200B patch-clamp amplifier (Axon Instruments, Foster City, CA). The cis compartment (ground) was filled with HEPES-Tris solution containing HEPES 250 mM and TrisOH 118 mM, pH 7.4. Bilayers of a 5∶4∶1 mixture of bovine brain phosphatidylethanolamine, phosphatidylserine and phosphatidylcholine (45–50 mg/ml in decane) were painted onto the holes of teflon septa from the cis side. Sarcoplasmic reticulum microsomes (5–15 µg) were then added to the cis solution followed by 500–1000 mM CsCl and 1 mM CaCl2 to promote vesicle fusion. After RyR currents (or Cl^− currents >100 pA at 0 mV) were observed, the cis chamber was perfused with HEPES-TRIS solution for 5 min at 4 ml/min. A mixture of BAPTA and dibromo-BAPTA was used to buffer free [Ca^2+] on the cytosolic surface of the channel ([Ca^2+]cyt). As previously done, RyR channels were identified by current amplitudes (∼3.5 pA at 0 mV), slope conductance (∼100 pS), reversal potential (∼−45 mV, trans - cis) and response to diagnostic ligands (e.g., ryanodine, Ca^2+, ATP, caffeine and Ruthenium Red). RyR channel currents are depicted as positive (upward deflections of the current) in figures and reflect cation flux from the trans (lumenal) to the cis (cytosolic) compartment. Membrane voltages always represent the difference between trans - cis compartments (in mV).
Channel currents were first filtered through the Axopatch 200B low-pass Bessel filter at 2 kHz, digitized at 20 kHz with an analog to digital converter (Digidata 1320, Axon Instruments) and stored on DVD. Recordings were analyzed using pClamp9 software (Axon Instruments). Analysis with this program included open times, closed times and open probabilities (Po), which were determined by half-amplitude threshold analysis of single-channel recordings as done before.
Recordings were digitally filtered at 500 Hz in order to estimate the probabilities of substates using two different methods:
Frame by frame analysis (100 ms/frame) was performed using pClamp9 on each 4-min recording. […] The parameters (mean amplitude and duration) of each event were collected and averaged. The probability of substate occurrence, Psubstate, was estimated from the ratio: time spent in substate/total recording time. Pfull open was estimated as the fraction of time spent in the maximal current level (full opening).

T1 sequence (A0A5G2R1W3 20-4900): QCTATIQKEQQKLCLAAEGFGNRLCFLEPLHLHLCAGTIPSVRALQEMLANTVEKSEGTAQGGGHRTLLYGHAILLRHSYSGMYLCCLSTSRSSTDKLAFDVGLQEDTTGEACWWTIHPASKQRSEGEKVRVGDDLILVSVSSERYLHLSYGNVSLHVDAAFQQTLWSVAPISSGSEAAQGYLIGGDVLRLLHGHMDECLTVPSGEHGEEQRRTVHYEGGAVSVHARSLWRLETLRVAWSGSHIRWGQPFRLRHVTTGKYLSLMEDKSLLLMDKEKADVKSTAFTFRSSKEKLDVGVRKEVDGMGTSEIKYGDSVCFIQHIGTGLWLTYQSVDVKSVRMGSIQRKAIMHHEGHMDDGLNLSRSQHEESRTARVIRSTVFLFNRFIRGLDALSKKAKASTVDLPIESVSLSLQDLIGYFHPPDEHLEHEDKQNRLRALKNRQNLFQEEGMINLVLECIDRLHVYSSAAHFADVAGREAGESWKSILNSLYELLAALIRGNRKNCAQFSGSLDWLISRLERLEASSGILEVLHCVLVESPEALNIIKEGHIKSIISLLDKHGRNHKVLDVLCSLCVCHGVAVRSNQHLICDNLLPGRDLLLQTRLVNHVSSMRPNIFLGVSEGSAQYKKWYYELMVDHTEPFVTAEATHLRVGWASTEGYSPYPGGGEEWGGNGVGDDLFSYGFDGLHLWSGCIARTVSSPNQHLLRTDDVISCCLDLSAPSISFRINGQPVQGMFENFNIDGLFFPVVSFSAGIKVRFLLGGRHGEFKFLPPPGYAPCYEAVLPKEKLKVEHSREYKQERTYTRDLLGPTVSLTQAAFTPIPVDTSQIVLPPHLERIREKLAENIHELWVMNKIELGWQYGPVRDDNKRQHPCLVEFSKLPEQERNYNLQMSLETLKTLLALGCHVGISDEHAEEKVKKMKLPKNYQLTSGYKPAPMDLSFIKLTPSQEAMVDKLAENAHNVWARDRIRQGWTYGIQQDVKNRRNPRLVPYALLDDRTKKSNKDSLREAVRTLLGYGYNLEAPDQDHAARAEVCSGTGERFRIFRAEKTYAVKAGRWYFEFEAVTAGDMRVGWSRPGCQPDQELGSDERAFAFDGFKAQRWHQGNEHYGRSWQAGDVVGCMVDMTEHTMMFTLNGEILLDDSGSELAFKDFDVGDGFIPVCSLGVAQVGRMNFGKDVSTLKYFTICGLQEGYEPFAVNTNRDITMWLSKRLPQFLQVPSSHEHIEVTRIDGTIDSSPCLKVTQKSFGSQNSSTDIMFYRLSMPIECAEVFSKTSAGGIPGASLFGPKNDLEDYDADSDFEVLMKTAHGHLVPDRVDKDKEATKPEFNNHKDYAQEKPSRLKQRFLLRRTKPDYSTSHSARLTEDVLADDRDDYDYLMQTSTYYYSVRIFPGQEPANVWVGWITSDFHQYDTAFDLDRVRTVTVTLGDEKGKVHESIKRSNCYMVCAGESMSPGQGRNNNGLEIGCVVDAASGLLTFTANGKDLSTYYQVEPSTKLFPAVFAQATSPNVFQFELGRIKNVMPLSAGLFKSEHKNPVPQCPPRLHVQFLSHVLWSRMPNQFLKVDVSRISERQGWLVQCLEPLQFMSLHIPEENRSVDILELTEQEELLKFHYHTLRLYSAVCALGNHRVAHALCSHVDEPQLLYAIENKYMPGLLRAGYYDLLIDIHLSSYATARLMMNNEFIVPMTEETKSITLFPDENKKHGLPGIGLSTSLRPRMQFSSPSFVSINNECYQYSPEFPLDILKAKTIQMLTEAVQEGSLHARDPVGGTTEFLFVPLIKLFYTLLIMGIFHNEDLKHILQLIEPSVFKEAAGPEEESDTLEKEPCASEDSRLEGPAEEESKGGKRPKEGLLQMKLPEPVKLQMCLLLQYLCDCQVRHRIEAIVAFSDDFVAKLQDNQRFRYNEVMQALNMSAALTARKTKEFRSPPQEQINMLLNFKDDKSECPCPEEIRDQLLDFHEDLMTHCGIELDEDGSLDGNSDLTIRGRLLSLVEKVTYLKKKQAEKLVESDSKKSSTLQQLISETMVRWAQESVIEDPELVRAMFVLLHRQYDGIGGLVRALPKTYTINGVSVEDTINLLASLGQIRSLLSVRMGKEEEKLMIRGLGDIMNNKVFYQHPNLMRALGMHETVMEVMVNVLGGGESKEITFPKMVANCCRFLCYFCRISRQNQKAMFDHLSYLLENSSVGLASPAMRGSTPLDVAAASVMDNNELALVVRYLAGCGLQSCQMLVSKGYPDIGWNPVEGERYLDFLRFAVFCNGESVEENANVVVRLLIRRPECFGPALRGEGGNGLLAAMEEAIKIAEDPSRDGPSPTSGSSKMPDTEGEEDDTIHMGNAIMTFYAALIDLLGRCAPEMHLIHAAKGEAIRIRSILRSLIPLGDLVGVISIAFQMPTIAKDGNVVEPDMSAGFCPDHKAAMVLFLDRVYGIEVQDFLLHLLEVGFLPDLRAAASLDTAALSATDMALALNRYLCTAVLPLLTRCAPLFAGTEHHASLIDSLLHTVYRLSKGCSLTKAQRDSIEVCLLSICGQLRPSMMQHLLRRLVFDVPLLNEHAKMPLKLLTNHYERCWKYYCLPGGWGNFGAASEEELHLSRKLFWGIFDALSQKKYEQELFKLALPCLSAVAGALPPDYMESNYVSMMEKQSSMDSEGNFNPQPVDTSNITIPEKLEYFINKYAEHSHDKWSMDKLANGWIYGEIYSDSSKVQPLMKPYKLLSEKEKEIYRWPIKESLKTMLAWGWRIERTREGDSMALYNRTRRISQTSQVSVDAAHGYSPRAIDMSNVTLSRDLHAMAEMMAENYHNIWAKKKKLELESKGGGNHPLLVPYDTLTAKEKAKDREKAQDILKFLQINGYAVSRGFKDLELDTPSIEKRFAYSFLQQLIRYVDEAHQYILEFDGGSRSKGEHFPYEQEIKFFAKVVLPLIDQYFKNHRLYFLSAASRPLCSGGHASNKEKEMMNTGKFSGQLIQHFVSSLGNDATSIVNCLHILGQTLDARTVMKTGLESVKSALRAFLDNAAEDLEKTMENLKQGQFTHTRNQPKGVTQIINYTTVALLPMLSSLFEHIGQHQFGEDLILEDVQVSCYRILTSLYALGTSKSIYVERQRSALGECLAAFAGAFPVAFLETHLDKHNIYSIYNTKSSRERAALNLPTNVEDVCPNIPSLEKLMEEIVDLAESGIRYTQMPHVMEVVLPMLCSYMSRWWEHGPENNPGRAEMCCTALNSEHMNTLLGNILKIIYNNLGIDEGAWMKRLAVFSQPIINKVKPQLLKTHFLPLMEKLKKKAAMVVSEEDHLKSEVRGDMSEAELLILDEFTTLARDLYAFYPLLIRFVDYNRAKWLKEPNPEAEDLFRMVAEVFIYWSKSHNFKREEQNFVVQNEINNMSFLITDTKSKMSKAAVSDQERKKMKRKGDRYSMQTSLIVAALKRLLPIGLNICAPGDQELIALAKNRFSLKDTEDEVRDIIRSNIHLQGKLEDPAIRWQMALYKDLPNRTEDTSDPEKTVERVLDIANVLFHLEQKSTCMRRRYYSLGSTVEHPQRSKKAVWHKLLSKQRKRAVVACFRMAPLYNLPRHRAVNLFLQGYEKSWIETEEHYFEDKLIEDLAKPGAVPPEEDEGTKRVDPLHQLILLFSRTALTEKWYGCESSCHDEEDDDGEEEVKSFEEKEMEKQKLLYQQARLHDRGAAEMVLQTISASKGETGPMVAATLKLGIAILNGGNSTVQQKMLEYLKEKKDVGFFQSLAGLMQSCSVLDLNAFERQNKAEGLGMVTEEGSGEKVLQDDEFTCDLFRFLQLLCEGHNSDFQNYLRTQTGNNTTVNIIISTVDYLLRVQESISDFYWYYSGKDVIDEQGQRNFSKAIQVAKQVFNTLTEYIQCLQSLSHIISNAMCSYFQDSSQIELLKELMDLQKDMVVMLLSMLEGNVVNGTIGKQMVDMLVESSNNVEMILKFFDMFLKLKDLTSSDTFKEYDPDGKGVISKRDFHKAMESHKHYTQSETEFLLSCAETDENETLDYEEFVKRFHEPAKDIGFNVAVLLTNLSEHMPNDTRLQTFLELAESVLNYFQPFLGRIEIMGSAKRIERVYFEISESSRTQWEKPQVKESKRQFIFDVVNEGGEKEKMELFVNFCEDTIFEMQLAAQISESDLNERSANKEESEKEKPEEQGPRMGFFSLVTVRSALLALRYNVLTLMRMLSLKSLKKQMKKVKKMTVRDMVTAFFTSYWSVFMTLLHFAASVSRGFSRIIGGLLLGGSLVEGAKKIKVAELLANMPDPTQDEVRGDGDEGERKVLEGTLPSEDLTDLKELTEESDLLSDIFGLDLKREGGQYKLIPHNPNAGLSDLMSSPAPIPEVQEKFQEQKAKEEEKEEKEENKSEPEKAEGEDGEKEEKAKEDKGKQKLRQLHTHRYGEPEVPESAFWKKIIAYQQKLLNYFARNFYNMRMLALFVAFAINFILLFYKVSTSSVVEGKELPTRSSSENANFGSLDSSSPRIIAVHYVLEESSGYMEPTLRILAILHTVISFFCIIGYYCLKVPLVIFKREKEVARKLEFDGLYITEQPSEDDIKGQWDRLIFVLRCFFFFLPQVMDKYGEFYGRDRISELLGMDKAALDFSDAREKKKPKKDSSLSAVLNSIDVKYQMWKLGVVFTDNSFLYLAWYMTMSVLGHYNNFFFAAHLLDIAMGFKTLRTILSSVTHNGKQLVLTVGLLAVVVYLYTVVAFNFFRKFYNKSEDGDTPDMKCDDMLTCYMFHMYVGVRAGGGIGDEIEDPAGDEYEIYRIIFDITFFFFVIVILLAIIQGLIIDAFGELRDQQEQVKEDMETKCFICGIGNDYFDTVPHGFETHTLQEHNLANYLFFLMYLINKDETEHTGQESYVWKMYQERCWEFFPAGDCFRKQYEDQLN

| Molecule | effect of IpTxA on RyR2 behavior when protamine is present (50 nM IpTxA + 1 µg/ml protamine, fully activated RyR2) | substate current level as % of the current through the full open channel (Vm = 0 mV) [%] | substate current level as % of the full open current | slope conductance of the induced substate (I-V curve) [pS] | open probability (Po) after addition of heparin (250 µg/ml heparin after 1 µg/ml protamine, 100 nM cytosolic Ca2+, Vm = 20 mV, n = 5) | effect of subsequent heparin addition on protamine-modified RyR2 (250 µg/ml heparin after 20 µg/ml protamine, Vm = 0 mV) | dwell time of ryanodol-induced events (10 µM ryanodol + 1 µg/ml protamine + 250 µg/ml heparin) [s] | dwell time of ryanodol-induced events (10 µM ryanodol + 1 µg/ml protamine) | dwell time of ryanodol-induced events (10 µM ryanodol alone) [s] |
| --- | --- | --- | --- | --- | --- | --- | --- | --- | --- |
| Imperatoxin A [IpTxA] | little or no effect | ~33 | same proportions | 43±3 | – | – | – | – | – |
| heparin | – | – | – | – | 0.009±0.006 | reversed the effect of protamine | – | – | – |
| CC(C)[C@@]1(O)[C@@H](O)[C@@]2(O)[C@@]3(C)C[C@]4(O)O[C@@]5([C@H](O)[C@@H](C)CC[C@]35O)[C@@]2(O)[C@]14C [ryanodol, Ryanodol] | – | ~45 | same proportions | 56±2 | – | – | 3.4 ± 0.5 | 11 ± 3 s and 11.3 ± 2.5 s | 3.7 ± 0.7 |

From paper PMC2789381, “Voltage-Dependent Modulation of Cardiac Ryanodine Receptors (RyR2) by Protamine” (PLoS ONE, 2009)
